Laboratory results: patent US6407104B1, “Pyrrolo[1,2-a]pyrazine spla2 inhibitor” (Shionogi & Co., Ltd., priority 1998, dated 2002)
Counter-ions that a name gives are not always drawn.

Columns and labels:
[1] = target: T1, recombinant human secretory phospholipase A2 (Homo sapiens, UniProt P14555); test: Inhibition Test of Human Secretory Phospholipase A2 (chromogenic assay); assay type: biochemical; conditions: sPLA2 50 ng/well, 40° C., 30 minutes, OD 405 nm, 96 well microtiterplate
T1 sequence (P14555 21-144): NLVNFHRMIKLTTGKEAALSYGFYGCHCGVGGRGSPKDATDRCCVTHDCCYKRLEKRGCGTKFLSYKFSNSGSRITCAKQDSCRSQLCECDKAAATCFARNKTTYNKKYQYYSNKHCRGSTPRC
Description: Test Example: Inhibition Test of Human Secretory Phospholipase A2
In order to identify and evaluate an inhibitor of recombinant human secretory phospholipase A2, the following chromogenic assay is utilized. The assay herein has been applied for high volume screening wherein 96 well microtiterplate is used. A general explanation for such assay is described in “Analysis of Human Synovial Fluid Phospholipase A2 on Short Chain Phosphatidylcholine-Mixed Micelles: Development of a Spectrophotometric Assay Suitable for a Micortiterplate Reader” (Analytical Biochemistry, 204, pp 190-197, 1992 by Laure. J. Reynolds. Lori L. Hughes and Edward A. Dennis: the disclosure of which is incorporated herein for reference.
pH 7.5 (adjusted with NaOH)
pH 4.5 (adjusted with acetic acid)
1 mg of sPLA2 is dissolved in 1 ml of an enzyme buffer. Thereafter, the solution is maintained at 4° C.
In the assay, 5 μl of the solution is diluted with 1995 μl of the reaction buffer to be used.
198 mg of 5,5′-dithiobis-2-[…] (manufactured by Wako Pure Chemicals) is dissolved in 100 ml of H2O
H 7.5 (adjusted with NaOH)
100 mg of racemic 1,2-bis(heptanoylthio)-1,2-dideoxy-sn-glycero-3-phospholylcholine is dissolved in 1 ml of chloroform.
624.9 mg of Triton-X 100 is dissolved in the reaction buffer.
Enzyme Reaction: for 1 Plate of Microtiterplate
1) 0.106 ml of the substrate solution is put in a centrifugal tube, and nitrogen gas is jetted to remove the solvent. 0.54 ml of Triton-X 100 is added thereto, the mixture is stirred, thereafter it is sonified in a bath type sonification to dissolve. To the resulting product are added 17.8 ml of the reaction buffer and 0.46 ml of DTNB, and 0.18 ml each of the admixture is poured to wells of the 96 well microtiterplate.
2) 10 μl of a test compound (or solvent blank) are added in accordance with alignment of plates which has been previously set.
3) Incubation is effected at 40° C. for 15 minutes.
4) 20μl of an enzyme solution (sPLA2) which has been previously diluted (50 ng/well) are added to start reaction (40° C., 30 minutes).
5) Changes in absorbancy for 30 minutes are measured by a plate reader, and inhibition activity was calculated (OD: 405 nm).
6) IC50 was determined by plotting log concentration with respect to inhibition values within 10% to 90% inhibiting range.

Row | melting point | IC50 [1] | SMILES
1 | 250 to 265 °C | – | CCc1c(C(=O)C(N)=O)c2c(OCC(=O)O)nc(C)cn2c1Cc1ccc(F)cc1 (as salt: Na) [Compound I-99]
2 | 260 to 263 °C | – | CCc1c(C(=O)C(N)=O)c2c(OCC(=O)O)nc(C)cn2c1Cc1ccccc1-c1ccsc1 (as salt: Na) [Compound I-102]
3 | 151 to 152 °C | 208 nM | CCc1c(C(=O)C(N)=O)c2c(OCC(=O)OC)nccn2c1Cc1ccccc1 [Compound I-1]
4 | – | 11 nM | CCc1c(C(=O)C(N)=O)c2c(OCC(=O)O)nccn2c1Cc1ccccc1 [Compound I-2, [6-Benzyl-7-ethyl-8-oxamoylpyrrolo[1,2-a]pyrazin-1-yl]oxyacetic acid]
5 | 177 to 179 °C | 2620 nM | COC(=O)COc1nccn2c(Cc3ccccc3)c(C3CC3)c(C(=O)C(N)=O)c12 [Compound I-3]
6 | 154 to 155 °C | 435 nM | CCc1c(C(=O)C(N)=O)c2c(OCC(=O)OC)nccn2c1Cc1cccc(OC)c1 [Compound I-9]
7 | 144 to 148 °C | 194 nM | CCc1c(C(=O)C(N)=O)c2c(OCC(=O)OC)nccn2c1Cc1ccc2ccsc2c1 [Compound I-11]
8 | 182 to 183 °C | 157 nM | COC(=O)COc1nccn2c(Cc3ccccc3)c(C)c(C(=O)C(N)=O)c12 [Compound I-13]
9 | 192 to 194 °C | 172 nM | CCc1c(C(=O)C(N)=O)c2c(OCC(=O)OC)nc(C)cn2c1Cc1ccccc1 [Compound I-17]
10 | 207 to 208 °C | 9 nM | CCc1c(C(=O)C(N)=O)c2c(OCC(=O)O)nc(C)cn2c1Cc1ccccc1 [Compound I-18, [6-Benzyl-7-ethyl-3-methyl-8-oxamoylpyrrolo[1,2-a]pyrazin-1-yl]oxyacetic acid]
11 | 167 to 168 °C | 562 nM | CCc1c(C(=O)C(N)=O)c2c(OCC(=O)OC)nc(C)cn2c1Cc1ccc(F)cc1 [Compound I-19]
12 | 204 to 205 °C | – | CCc1c(C(=O)C(N)=O)c2c(OCC(=O)O)nc(C)cn2c1Cc1ccc(F)cc1 [Compound I-20]
13 | 164.5 to 165.5 °C | 41 nM | CCc1c(C(=O)C(N)=O)c2c(OCC(=O)OC)nc(C)cn2c1Cc1ccccc1-c1ccccc1 [Compound I-21]
14 | 192 to 194 °C | 8 nM | CCc1c(C(=O)C(N)=O)c2c(OCC(=O)O)nc(C)cn2c1Cc1ccccc1-c1ccccc1 [Compound I-22, [6-(2-Biphenylmethyl)-7-ethyl-3-methyl-8-oxamoylpyrrolo [1,2-a]pyrazin-1-yl]oxyacetic acid]
15 | 135 to 136.5 °C | 651 nM | CCc1c(C(=O)C(N)=O)c2c(OCC(=O)OC)nc(C)cn2c1CC1CCCC1 [Compound I-23]
16 | 187 to 188 °C | 196 nM | CCc1c(C(=O)C(N)=O)c2c(OCC(=O)OC)nc(C)cn2c1Cc1ccccc1F [Compound I-25]
17 | 218 to 219 °C | 12 nM | CCc1c(C(=O)C(N)=O)c2c(OCC(=O)O)nc(C)cn2c1Cc1ccccc1F [Compound I-26]
18 | – | 5 nM | CCc1c(C(=O)C(N)=O)c2c(OCC(=O)O)nc(C)cn2c1Cc1ccccc1-c1cccs1 [Compound I-52, [7-Ethyl-3-methyl-8-oxamoyl-6-(2-(2-thienyl)benzyl)pyrrolo[1,2-a]pyrazin-1-yl]oxyacetic acid]
19 | – | 1550 nM | CCc1c(C(=O)C(N)=O)c2c(OCC(=O)OC)nc(C)cn2c1Cc1ccccc1-c1cccnc1 [Compound I-65]
20 | – | 45 nM | CCc1c(C(=O)C(N)=O)c2c(OCC(=O)O)nc(C)cn2c1Cc1ccccc1-c1cccnc1 [Compound I-66]
21 | – | 57 nM | CCc1c(C(=O)C(N)=O)c2c(OCC(=O)OC)nc(C)cn2c1Cc1ccccc1-c1ccc(OC)cc1 [Compound I-67]
22 | – | 8 nM | CCc1c(C(=O)C(N)=O)c2c(OCC(=O)O)nc(C)cn2c1Cc1ccccc1-c1ccc(OC)cc1 [Compound I-68]
23 | – | 21 nM | CCc1c(C(=O)C(N)=O)c2c(OCC(=O)O)nc(C)cn2c1Cc1ccc(F)cc1 [Compound I-99]
24 | – | 19 nM | CCc1c(C(=O)C(N)=O)c2c(OCC(=O)O)nc(C)cn2c1Cc1ccccc1-c1cccs1 [Compound I-101]
25 | – | 20 nM | CCc1c(C(=O)C(N)=O)c2c(OCC(=O)O)nc(C)cn2c1Cc1ccccc1-c1ccsc1 [Compound I-102]

More lines, now with the values behind:

Row | SMILES | melting point | IC50 [1]
26 | NC(=O)C(=O)c1c(C2CC2)c(Cc2ccccc2)n2ccnc(OCC(=O)O)c12 [Compound I-4] | 189 to 191 °C | 35 nM
27 | CCc1c(C(=O)C(N)=O)c2c(OCC(=O)OC)nccn2c1Cc1cccs1 [Compound I-5] | 165 to 166 °C | 314 nM
28 | CCc1c(C(=O)C(N)=O)c2c(OCC(=O)O)nccn2c1Cc1cccs1 [Compound I-6] | 225 to 227 °C | 9 nM
29 | CCc1c(C(=O)C(N)=O)c2c(OCC(=O)OC)nccn2c1CC1CCCCC1 [Compound I-7] | 162 to 163 °C | 389 nM
30 | CCc1c(C(=O)C(N)=O)c2c(OCC(=O)O)nccn2c1CC1CCCCC1 [Compound I-8] | 205 to 206 °C | 11 nM
31 | CCc1c(C(=O)C(N)=O)c2c(OCC(=O)O)nccn2c1Cc1cccc(OC)c1 [Compound I-10] | 196 to 197.5 °C | 14 nM
32 | CCc1c(C(=O)C(N)=O)c2c(OCC(=O)O)nccn2c1Cc1ccc2ccsc2c1 [Compound I-12] | 209 to 211 °C | 10 nM
33 | Cc1c(C(=O)C(N)=O)c2c(OCC(=O)O)nccn2c1Cc1ccccc1 [Compound I-14] | 207 to 208 °C | 11 nM
34 | CCc1c(C(=O)C(N)=O)c2c(OCC(=O)OC)nccn2c1CC1CCCC1 [Compound I-15] | 165 to 166 °C | 512 nM
35 | CCc1c(C(=O)C(N)=O)c2c(OCC(=O)O)nccn2c1CC1CCCC1 [Compound I-16] | 203 to 205 °C | 6 nM
36 | CCc1c(C(=O)C(N)=O)c2c(OCC(=O)O)nc(C)cn2c1CC1CCCC1 [Compound I-24] | 192 to 193 °C | 17 nM
37 | CCc1c(C(=O)C(N)=O)c2c(OCC(=O)O)nc(C)cn2c1Cc1ccccc1C#Cc1ccccc1 [Compound I-54, [7-Ethyl-3-methyl-8-oxamoyl-6-(2-phenylethynylbenzyl)pyrrolo [1,2-a]pyrazin-1-yl]oxyacetic acid] | – | 6 nM
38 | CCc1c(C(=O)C(N)=O)c2c(SCC(=O)O)nc(C)cn2c1Cc1ccccc1-c1ccc(F)cc1 [Compound I-58] | – | 25 nM
39 | COC(=O)COc1nc(C)c(Cc2ccc(F)cc2)n2cc(C)c(C(=O)C(N)=O)c12 [Compound I-59] | – | 15800 nM
40 | Cc1cn2c(Cc3ccc(F)cc3)c(C)nc(OCC(=O)O)c2c1C(=O)C(N)=O [Compound I-60] | – | 1210 nM
41 | CCc1c(C(=O)C(N)=O)c2c(OCC(=O)OCCN3CCOCC3)nc(C)cn2c1Cc1ccccc1-c1ccc(F)cc1 [Compound I-96] | – | 77 nM
42 | CCc1c(C(=O)C(N)=O)c2c(OCC(=O)OCCN3CCOCC3)nc(C)cn2c1Cc1ccccc1-c1cccs1 [Compound I-97] | – | 78 nM
43 | CCc1c(C(=O)C(N)=O)c2c(OCC(=O)O)nc(C)cn2c1Cc1ccccc1-c1ccc(F)cc1 [Compound I-100] | – | 21 nM
